Source: ChEMBL document CHEMBL3627631, “Inactivation of protein tyrosine phosphatases by dietary isothiocyanates” (Bioorg Med Chem Lett, 2015)
Active and inactive are the calls of the source. The rule behind the calls is not given here.

What was measured:
[1] = target: T1, Tyrosine-protein phosphatase non-receptor type 11 (Homo sapiens) (UniProt Q06124); experiment: Inhibition of recombinant human SHP2 catalytic domain (246 to 527 amino acid residues) in Tris buffer using pNPP as substrate assessed as apparent second order rate constant after 10 mins
T1 sequence (whole entry): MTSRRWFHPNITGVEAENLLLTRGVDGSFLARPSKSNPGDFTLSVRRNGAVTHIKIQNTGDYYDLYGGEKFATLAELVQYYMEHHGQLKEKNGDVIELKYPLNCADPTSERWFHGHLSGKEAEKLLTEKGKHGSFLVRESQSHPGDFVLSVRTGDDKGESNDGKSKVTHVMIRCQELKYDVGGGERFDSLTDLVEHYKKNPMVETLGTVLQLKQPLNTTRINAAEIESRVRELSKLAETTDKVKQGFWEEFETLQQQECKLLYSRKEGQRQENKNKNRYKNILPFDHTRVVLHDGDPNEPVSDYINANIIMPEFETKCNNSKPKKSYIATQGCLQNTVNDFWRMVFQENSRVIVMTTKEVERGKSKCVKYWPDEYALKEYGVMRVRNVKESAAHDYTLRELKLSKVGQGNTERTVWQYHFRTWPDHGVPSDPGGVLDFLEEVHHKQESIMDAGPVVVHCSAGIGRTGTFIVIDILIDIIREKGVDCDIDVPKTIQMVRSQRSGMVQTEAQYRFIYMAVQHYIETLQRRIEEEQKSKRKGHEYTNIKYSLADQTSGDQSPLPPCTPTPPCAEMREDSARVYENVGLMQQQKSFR

[2] = target: T1, Tyrosine-protein phosphatase non-receptor type 11 (Homo sapiens); experiment: Inhibition of recombinant human SHP2 catalytic domain (246 to 527 amino acid residues) in 3,3-dimethylglutarate buffer using pNPP as substrate assessed as apparent second order rate constant after 10 mins
[3] = target: T1, Tyrosine-protein phosphatase non-receptor type 11 (Homo sapiens); experiment: Inhibition of recombinant human SHP2 catalytic domain (246 to 527 amino acid residues) in 3,3-dimethylglutarate buffer using pNPP as substrate assessed as p-nitrophenolate release by spectrophotometric analysis in presence of reversible, site-directed inhibitor phosphate, arsenate
[4] = target: T2, Tyrosine-protein phosphatase non-receptor type 1 (Homo sapiens) (UniProt P18031); experiment: Reversible inhibition of recombinant human PTP1B catalytic domain (1 to 322 amino acid residues) in 3,3-dimethylglutarate buffer assessed as inactivation constant kf
T2 sequence (whole entry): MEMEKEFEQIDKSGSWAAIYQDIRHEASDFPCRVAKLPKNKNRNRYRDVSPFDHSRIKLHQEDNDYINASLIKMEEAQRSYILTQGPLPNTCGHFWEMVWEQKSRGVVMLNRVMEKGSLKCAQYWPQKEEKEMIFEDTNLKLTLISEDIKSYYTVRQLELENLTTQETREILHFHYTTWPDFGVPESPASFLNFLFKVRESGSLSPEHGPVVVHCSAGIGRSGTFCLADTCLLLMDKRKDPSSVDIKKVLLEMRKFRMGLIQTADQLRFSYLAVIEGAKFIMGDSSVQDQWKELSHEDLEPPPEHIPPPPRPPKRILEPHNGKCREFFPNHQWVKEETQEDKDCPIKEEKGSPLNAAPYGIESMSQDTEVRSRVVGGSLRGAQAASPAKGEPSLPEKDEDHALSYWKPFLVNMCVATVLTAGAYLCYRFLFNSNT

[5] = target: T2, Tyrosine-protein phosphatase non-receptor type 1 (Homo sapiens); experiment: Reversible inhibition of recombinant human PTP1B catalytic domain (1 to 322 amino acid residues) in 3,3-dimethylglutarate buffer assessed as inactivation constant kr
[6] = target: T2, Tyrosine-protein phosphatase non-receptor type 1 (Homo sapiens); experiment: Reversible inhibition of recombinant human PTP1B catalytic domain (1 to 322 amino acid residues) measured for 3 hrs by gel filtration assay
[7] = target: T2, Tyrosine-protein phosphatase non-receptor type 1 (Homo sapiens); experiment: Reversible inhibition of recombinant human PTP1B catalytic domain (1 to 322 amino acid residues) in Tris buffer assessed as inactivation constant kr
[8] = target: T2, Tyrosine-protein phosphatase non-receptor type 1 (Homo sapiens); experiment: Inhibition of recombinant human PTP1B catalytic domain (1 to 322 amino acid residues) using pNPP as substrate assessed as p-nitrophenolate release at 500 uM incubated with first aliquot of enzyme for 2000 secs followed by addition of second aliquot of enzyme measured for 1500 secs by spectrophotometric analysis
[9] = target: T2, Tyrosine-protein phosphatase non-receptor type 1 (Homo sapiens); experiment: Inhibition of recombinant human PTP1B catalytic domain (1 to 322 amino acid residues) using pNPP as substrate assessed as p-nitrophenolate release at 200 uM after 10 mins by spectrophotometric analysis in presence of reversible, site-directed inhibitor phosphate, arsenate
[10] = Chemical stability of the compound in Bis-Tris and Tris buffer containing DTPA, sodium acetate, Tween 80 at 500 uM at pH 7.0 at 30 degC incubated for 2.5 hrs prior to addition of PTP1B; type: physicochemical; settings: pH 7, 2.5 h
[11] = target: T2, Tyrosine-protein phosphatase non-receptor type 1 (Homo sapiens); experiment: Reversible inhibition of recombinant human PTP1B catalytic domain (1 to 322 amino acid residues) in Tris buffer assessed as inactivation constant kf
[12] = target: T2, Tyrosine-protein phosphatase non-receptor type 1 (Homo sapiens); experiment: Inhibition of recombinant human PTP1B catalytic domain (1 to 322 amino acid residues) using pNPP as substrate assessed as p-nitrophenolate release after 10 mins by spectrophotometric analysis in presence of catalase, superoxide dismutase and mannitol
[13] = Chemical stability of the compound in 3,3-dimethylglutarate buffer containing DTPA, sodium acetate, Tween 80 at 500 uM at pH 7.0 at 30 degC incubated for 2.5 hrs prior to addition of PTP1B; type: physicochemical; settings: pH 7, 2.5 h

SMILES	Kapp [1]	Kapp [2]	inhibition [3]	K [4]	K [5]	inhibition [6]	K [7]	inhibition [8]	inhibition [9]	Stability [10]	K [11]	inhibition [12]	Stability [13]
C[S+]([O-])CCCCN=C=S (stereo not drawn)	3.5 M⁻¹ s⁻¹	3.7 M⁻¹ s⁻¹	inactive	2.4 M⁻¹ s⁻¹	1.4 ×10⁻⁴ /s	–	–	–	–	–	–	–	–
C=CCN=C=S [ALLYL ISOTHIOCYANATE]	16 M⁻¹ s⁻¹	9 M⁻¹ s⁻¹	inactive	2.7 M⁻¹ s⁻¹	8.3 ×10⁻⁵ /s	Active	2.3 ×10⁻⁴ /s	Active	inactive	Unstable	2.3 M⁻¹ s⁻¹	Active	Stable
